The numbers were not newly measured in patent US4513029A, “Sea water antifouling method” (priority 1982, dated 1985), which cites them from elsewhere.

Structures are written as SMILES.

The test system of the data set is mice. The settings on record: oral administration to mice (after 24 hours).

On to `[Cu].[O]=[Cu]` [copper suboxide], for which the LD50 entry is “not more than 1,000 mg/kg”. `CC(=O)[O-].c1cc[c]([Sn+]([c]2ccccc2)[c]2ccccc2)cc1` [tripenyltin acetate]: the LD50 result is on record as “not more than 1,000 mg/kg”. With `[Cl][Sn]([c]1ccccc1)([c]1ccccc1)[c]1ccccc1` [triphenyltin chloride], the LD50 result is “not more than 1,000 mg/kg”. Consider `[OH][Sn]([c]1ccccc1)([c]1ccccc1)[c]1ccccc1` [triphenyltin hydroxide], for which the LD50 entry was “not more than 1,000 mg/kg”.
